Results from patent publication US9476053B2, “Methods and compositions for inhibition of immune responses and autoimmunity” (Dynavax Technologies Corporation, priority 2007, dated 2016).

What was measured:
[1] = biological target: T1, TLR7 (Mus musculus, UniProt P58681); test: Mouse splenocytes stimulated with R848 (TLR7 ligand), IL-6 by immunoassay; assay type: cell-based
T1 construct: The dispersed splenocytes were pelleted by centrifugation, then resuspended in fresh medium; endogenous in cells; host or cells: primary splenocytes of BALB/c mice
T1 sequence (P58681 27-1050): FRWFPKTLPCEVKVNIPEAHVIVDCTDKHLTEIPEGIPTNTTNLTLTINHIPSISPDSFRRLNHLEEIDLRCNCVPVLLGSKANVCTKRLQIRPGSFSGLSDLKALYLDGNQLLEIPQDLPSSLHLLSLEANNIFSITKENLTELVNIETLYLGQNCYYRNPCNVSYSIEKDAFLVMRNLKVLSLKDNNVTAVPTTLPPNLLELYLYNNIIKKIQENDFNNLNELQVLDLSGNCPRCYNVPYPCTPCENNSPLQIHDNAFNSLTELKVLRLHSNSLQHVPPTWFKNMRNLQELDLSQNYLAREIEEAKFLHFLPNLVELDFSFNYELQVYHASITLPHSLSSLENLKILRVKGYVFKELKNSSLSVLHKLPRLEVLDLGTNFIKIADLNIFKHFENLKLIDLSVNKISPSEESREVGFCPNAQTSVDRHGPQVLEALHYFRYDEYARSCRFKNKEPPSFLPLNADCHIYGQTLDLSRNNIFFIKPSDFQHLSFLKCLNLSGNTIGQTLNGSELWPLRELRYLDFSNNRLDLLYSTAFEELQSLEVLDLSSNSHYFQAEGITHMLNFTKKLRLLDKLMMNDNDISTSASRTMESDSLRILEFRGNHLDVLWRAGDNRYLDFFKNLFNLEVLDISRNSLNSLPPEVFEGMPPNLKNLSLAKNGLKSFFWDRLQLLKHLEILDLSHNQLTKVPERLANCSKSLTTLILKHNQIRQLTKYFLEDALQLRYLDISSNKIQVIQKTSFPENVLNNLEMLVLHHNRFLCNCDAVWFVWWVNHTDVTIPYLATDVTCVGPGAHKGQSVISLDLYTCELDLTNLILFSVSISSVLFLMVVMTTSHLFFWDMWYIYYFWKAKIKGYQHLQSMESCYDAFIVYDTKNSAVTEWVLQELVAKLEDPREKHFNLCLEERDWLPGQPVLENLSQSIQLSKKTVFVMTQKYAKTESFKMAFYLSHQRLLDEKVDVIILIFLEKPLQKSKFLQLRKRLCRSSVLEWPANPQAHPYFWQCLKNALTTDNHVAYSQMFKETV
Experimental: (§1) Modified and unmodified immunoregulatory polynucleotides (IRPs) (i.e., polynucleotides containing at least one modified or unmodified IRS) or control samples were assayed for immunoregulatory (IR) activity of innate immune responses on human and mouse cells.
(§2) For mouse cell assays, spleens from 6-12 week-old BALB/c mice spleen were harvested and mechanically dispersed by forcing the digested fragments through metal screens. The dispersed splenocytes were pelleted by centrifugation, then resuspended in fresh medium (RPMI 1640 with 10% fetal calf serum, plus 50 units/mL penicillin, 50 μg/mL streptomycin, 2 mM glutamine, and 0.05 mM β-mercaptoethanol). In a dose-dependent manner, the cells were then stimulated with […] of 1018 ISS (TLR9 ligand; 5′-[…]-3′ (SEQ ID NO:122)) or 1 μM of R848 (TLR7 ligand; a small molecule, an imidazoquinoline also called resiquimod) either alone or in the presence of the tested IRPs. At 48 hours, supernatants were collected and cytokine levels, IL-6, were measured using immunoassays. […]

[2] = biological target: T2, TLR9 (Mus musculus, UniProt Q9EQU3); test: Mouse splenocytes stimulated with 1018 ISS (TLR9 ligand), IL-6 by immunoassay; assay type: cell-based; details: TLR9 stimulation (1018 ISS)
T2 construct: The dispersed splenocytes were pelleted by centrifugation, then resuspended in fresh medium; endogenous in cells; host or cells: primary splenocytes of BALB/c mice
T2 sequence (Q9EQU3 26-1032): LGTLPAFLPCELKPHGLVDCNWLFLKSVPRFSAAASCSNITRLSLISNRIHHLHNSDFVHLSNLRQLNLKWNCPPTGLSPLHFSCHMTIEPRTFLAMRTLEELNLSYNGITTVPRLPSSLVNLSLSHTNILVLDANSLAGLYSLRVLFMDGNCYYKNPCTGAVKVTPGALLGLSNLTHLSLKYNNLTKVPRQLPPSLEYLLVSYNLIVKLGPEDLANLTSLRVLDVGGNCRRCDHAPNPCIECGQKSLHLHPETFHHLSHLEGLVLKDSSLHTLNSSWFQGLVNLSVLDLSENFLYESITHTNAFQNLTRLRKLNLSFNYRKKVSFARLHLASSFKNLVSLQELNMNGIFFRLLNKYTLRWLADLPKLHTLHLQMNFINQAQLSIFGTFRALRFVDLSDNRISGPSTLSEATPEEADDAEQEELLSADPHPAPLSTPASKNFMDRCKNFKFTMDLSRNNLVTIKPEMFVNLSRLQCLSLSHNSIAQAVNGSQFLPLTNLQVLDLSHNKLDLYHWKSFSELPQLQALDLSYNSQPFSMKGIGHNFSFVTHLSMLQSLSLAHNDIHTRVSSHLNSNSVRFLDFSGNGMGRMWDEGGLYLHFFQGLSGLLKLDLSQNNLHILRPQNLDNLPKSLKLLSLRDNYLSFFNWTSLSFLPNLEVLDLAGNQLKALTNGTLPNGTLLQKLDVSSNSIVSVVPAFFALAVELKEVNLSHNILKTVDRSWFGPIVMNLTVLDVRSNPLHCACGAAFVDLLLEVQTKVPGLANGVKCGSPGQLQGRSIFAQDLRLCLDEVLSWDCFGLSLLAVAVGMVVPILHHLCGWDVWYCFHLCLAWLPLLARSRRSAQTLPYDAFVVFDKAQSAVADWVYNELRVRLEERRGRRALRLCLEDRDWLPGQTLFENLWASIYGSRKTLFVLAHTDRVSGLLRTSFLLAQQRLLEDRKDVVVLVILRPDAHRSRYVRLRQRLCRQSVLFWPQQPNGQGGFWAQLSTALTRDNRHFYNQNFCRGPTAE
Experimental: as §1, §2

[3] = test system: PDC; test: In vivo cell survival after escalating dose of Dexthametasone in 129 mice; parameters: species or system mouse; details: 0.5 mg-4 mg, 16 hours, spleen and blood
Experimental: To investigate whether PDC are sensitive to glucorticoid induced death in vivo, 129 mice were treated with escalating dose of Dexthametasone (0.5 mg-4 mg) and after 16 hours spleen and blood was harvest. Cell survival was measured by flow cytometry. The number of viable cells was evaluated by flow cytometry by comparing to a fixed amount of microbeads that was added in equal amount in all samples prior to the measure on the flow cytometry.
Specific markers were used to identify specific subsets. Cells were identified to be PDC by the surface presence of B220, CD11c, and PDCA1 marker. Myeloid dendritic cells were identified as to be CD11c positive and B220 negative. B-cells were identified as B220 positive cells and CD11c negative. Monocytes were identified as CD11b positive. Cell viability using cells from spleen tissue under increasing Dexthametason dose was evaluated and results are shown in FIG. 32. Similar results were obtained using blood (data not shown). PDC were sensitive to glucorticoid induced death in vivo.

[4] = biological target: T3, TLR9 (Homo sapiens, UniProt Q9NR96); test: Human PDC activated with CpG-C ISS C274, IFN-α production, IRS coupled to Ficoll 400; assay type: cell-based; parameters: innate immune responses on human plasmacytoid dendritic cells (PDCs); endogenous in cells; host or cells: human plasmacytoid dendritic cells (PDCs); details: compared with IRS not coupled
T3 sequence (Q9NR96 26-1032): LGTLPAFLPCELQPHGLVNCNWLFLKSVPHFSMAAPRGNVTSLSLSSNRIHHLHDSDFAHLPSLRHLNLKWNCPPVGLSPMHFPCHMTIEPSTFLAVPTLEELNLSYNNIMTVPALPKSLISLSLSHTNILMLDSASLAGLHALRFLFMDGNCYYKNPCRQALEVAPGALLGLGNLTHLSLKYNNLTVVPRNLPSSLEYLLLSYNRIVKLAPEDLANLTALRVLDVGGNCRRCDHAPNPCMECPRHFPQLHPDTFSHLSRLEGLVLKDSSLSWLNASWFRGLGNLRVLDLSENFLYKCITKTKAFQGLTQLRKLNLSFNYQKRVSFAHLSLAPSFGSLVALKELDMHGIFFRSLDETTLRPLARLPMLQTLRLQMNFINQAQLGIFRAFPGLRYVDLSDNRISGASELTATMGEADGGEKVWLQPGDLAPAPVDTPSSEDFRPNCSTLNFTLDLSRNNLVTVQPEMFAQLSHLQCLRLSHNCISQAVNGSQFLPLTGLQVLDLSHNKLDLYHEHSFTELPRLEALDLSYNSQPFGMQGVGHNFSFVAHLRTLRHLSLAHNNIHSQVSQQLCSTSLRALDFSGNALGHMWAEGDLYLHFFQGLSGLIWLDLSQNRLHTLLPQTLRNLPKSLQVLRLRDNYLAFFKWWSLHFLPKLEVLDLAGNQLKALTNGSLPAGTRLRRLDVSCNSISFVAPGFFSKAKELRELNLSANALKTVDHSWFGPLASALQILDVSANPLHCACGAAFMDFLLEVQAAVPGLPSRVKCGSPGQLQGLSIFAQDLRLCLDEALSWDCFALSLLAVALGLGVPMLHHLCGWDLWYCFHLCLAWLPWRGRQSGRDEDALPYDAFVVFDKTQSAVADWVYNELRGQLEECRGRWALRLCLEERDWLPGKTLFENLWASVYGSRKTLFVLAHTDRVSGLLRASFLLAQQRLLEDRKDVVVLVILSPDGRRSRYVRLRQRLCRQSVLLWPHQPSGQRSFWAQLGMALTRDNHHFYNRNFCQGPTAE
Text: To further investigate whether it is possible to increase IRS activity with respect to inhibition of IFN-α production by aggregating IRS molecule onto a higher order molecule, we have generated molecules that are composed by IRS oligonucleotides that are covalently associated to Ficoll 400, a neutral, highly branched, hydrophilic polymer of sucrose. The nature of this sugar allowed us to link between 10 to over 100 IRS oligos per Ficoll molecule.
The conjugation of oligonucleotides to ficoll as practiced currently consists of four reaction steps: (I) The commercially obtained ficoll is carboxymethylated by reaction of ficoll with chloroacetic acid in base. (II) After neutralization and dialysis, product is reacted with ethylene diamine in the presence of the 1-ethyl-3-[3-(dimethylaminopropyl]carbodiimide) EDC to give product (III). After dialysis Product (III) is reacted with (sulfosuccinimidal 4-[N-maleimidyl]-cyclohexane-1-carboxylate) SMCC to give the ficoll-maleimide product (IV). The thiol-reactive species (IV) is then reacted with the oligonucleotide thiol to give the final product (V), a multioligonucleotide conjugate of ficoll.
Thus, it is possible to increase IRS activity with respect to inhibition of IFN-α production by aggregating IRS molecule onto a higher order molecule.

## 5′-UGCUCCUGGAGGGG UUGU-3′ (DNA TGCTCCTGGAGGGGTTGT; all LNA, backbone and methylation of C not given here) [SEQ ID NO:161]
[1]
  IL-6 levels compared to unmodified SEQ ID NO:123: failed to result in a significant decreased
[2]
  IL-6 levels compared to unmodified SEQ ID NO:123: failed to result in a significant decreased

## C[C@@H]1C[C@H]2[C@@H]3CCC4=CC(=O)C=C[C@]4(C)[C@@]3(F)[C@@H](O)C[C@]2(C)[C@@]1(O)C(=O)CO [Dexthametasone]
[3]
  PDC sensitivity to glucorticoid induced death in vivo: sensitive

## IRS-Ficoll 400: 5′-TGCTCCTGGAGGGGTTGT-3′ (SEQ ID NO:123) coupled to Ficoll 400 (coupled to Ficoll 400, backbone chemistry not given here)
[4]
  activity for blocking IFN-α production by PDC: much increased activity
